Data from patent publication US7585859B2, “PDE4B inhibitors and uses therefor” (Plexxikon, Inc., priority 2004, dated 2009).

What was measured:
PDE4D = target: T1, PDE4D (Homo sapiens, UniProt Q08499); test: PDE4 IC50 determination by Scintillation Proximity Assay, PDE4D; format: biochemical; conditions: Table 1B, Formula I compounds; read-out: IC50 PDE4D
T1 construct: PDE4D: The catalytic domain of human PDE4B from S3 16-V692; His6 (N); thrombin cleavage site (N); made in house; host or cells: E. coli
Protocol: (§1) IC50s were determined by Scintillation Proximity Assay (SPA). The principle of the assay is based on the fact that cAMP, the PDE4 substrate, binds weakly to Yittrium Silicate SPA beads, whereas AMP, the product of PDE4 hydrolysis binds strongly. Thus, the extent of PDE4 hydrolysis of a sample of [^3H]cAMP can be measured because only the
(§2) [^3H]AMP produced by PDE4 hydrolysis will bind to the SPA beads and produce a scintillation signal.
(§3) PDE4 enzymes used for IC50 assays were:
(§4) Enzyme was stored in 50% glycerol at −20°.
(§5) In addition to the compound dilutions, each assay plate contained control wells with 1 μl of DMSO (to define 0% enzyme inhibition) or 1 μl of 200 μM roflumilast (to define 100% enzyme inhibition). […] Next, 10 μl of PDE4 enzyme in assay buffer was added and the plates were shaken for 30 s. at 1000 rpm to start the cAMP hydrolysis reaction. The concentrations of enzyme used were: PDE4B, 80 ng/ml; PDE4D, 4 ng/ml; PDE4B2, 2.5 μl of 50% glycerol stock/ml; PDE4D5 0.083 μl of 50% glycerol stock/ml. Assay plates were covered and incubated for 30 min. at 30°. […] The assay plates were covered with clear plastic film, centrifuged for 1 min. at 1000 RPM to settle the SPA beads, and counted using a Wallac TriLux scintillation counter. IC50's were calculated from the raw assay data by non-linear regression curve fitting using the Assay Explorer software package from MDL.

[1] = target: T2, PDE4B: The catalytic domain of human PDE4B from S152-S528 (Homo sapiens, UniProt Q07343); test: PDE4 IC50 determination by Scintillation Proximity Assay, PDE4B; format: biochemical; conditions: Table 1B, Formula I compounds; read-out: IC50 PDE4B
T2 construct: His6 (N); thrombin cleavage site (N); made in house; host or cells: E. coli
Protocol: as §1, §2, §3, §4, §5

T1 sequence (Q08499 380-756): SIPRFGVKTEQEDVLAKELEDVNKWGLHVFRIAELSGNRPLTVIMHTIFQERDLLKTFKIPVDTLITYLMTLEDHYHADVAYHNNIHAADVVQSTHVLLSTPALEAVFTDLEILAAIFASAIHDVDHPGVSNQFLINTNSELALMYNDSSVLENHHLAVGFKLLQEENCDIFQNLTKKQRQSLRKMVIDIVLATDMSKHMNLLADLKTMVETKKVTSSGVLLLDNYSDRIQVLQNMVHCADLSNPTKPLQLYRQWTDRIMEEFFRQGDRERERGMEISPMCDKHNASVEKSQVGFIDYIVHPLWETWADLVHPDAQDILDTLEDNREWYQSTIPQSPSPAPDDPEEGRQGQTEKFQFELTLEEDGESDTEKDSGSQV
T2 sequence (Q07343 with tags, fused parts or gaps): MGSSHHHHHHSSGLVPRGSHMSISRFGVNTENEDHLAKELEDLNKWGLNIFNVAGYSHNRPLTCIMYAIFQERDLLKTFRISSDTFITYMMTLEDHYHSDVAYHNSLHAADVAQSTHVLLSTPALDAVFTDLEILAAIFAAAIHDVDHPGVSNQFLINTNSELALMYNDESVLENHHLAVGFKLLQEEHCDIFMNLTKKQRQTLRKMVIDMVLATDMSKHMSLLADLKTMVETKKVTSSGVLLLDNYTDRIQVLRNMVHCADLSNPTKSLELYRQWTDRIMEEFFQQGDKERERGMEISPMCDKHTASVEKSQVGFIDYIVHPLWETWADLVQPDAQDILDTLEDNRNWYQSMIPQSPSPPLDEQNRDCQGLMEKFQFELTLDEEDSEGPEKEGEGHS

Row | Structure (SMILES) | IC50 (PDE4D) | IC50 [1]
1 | N#Cc1c(NCCN2CCCCC2)sc(C(=O)c2coc3ccccc23)c1N [Compound 1-45, 4-Amino-5-(benzofuran-3-carbonyl)-2-(2-piperidin-1-yl-ethylamino)-thiophene-3-carbonitrile] | > 10 µM | > 10 µM
2 | N#Cc1c(NCCN2CCCCC2)sc(C(=O)c2ccccc2Cl)c1N [Compound 1-46, 4-Amino-5-(2-chloro-benzoyl)-2-(2-piperidin-1-yl-ethylamino)-thiophene-3-carbonitrile] | > 10 µM | > 10 µM
3 | N#Cc1c(NCCN2CCCCC2)sc(C(=O)c2cccc(Cl)c2)c1N [Compound 1-47, 4-Amino-5-(3-chloro-benzoyl)-2-(2-piperidin-1-yl-ethylamino)-thiophene-3-carbonitrile] | > 10 µM | > 10 µM
4 | N#Cc1c(NCCN2CCCCC2)sc(C(=O)c2csc3ccccc23)c1N [Compound 1-48, 4-Amino-5-(benzo[b]thiophene-3-carbonyl)-2-(2-piperidin-1-yl-ethylamino)-thiophene-3-carbonitrile] | > 10 µM | > 10 µM
5 | Cc1c(C(=O)c2sc(Nc3ccccc3F)c(C#N)c2N)cnn1-c1ccccc1 [Compound 1-49, 4-Amino-2-(2-fluoro-phenylamino)-5-(5-methyl-1-phenyl-1H-pyrazole-4-carbonyl)-thiophene-3-carbonitrile] | < 10 µM | < 10 µM
6 | Cc1c(C(=O)c2sc(NCCN3CCCCC3)c(C#N)c2N)cnn1-c1ccccc1 [Compound 1-51, 4-Amino-5-(5-methyl-1-phenyl-1H-pyrazole-4-carbonyl)-2-(2-piperidin-1-yl-ethylamino)-thiophene-3-carbonitrile] | > 10 µM | < 10 µM
7 | COC(=O)C(CC(C)C)Nc1sc(C(=O)c2cnn(-c3ccccc3)c2C)c(N)c1C#N (stereo not shown) [Compound 1-52, 2-[4-Amino-3-cyano-5-(5-methyl-1-phenyl-1H-pyrazole-4-carbonyl)-thiophen-2-ylamino]-4-methyl-pentanoic acid methyl ester] | > 10 µM | < 10 µM
8 | COC(=O)C(CCSC)Nc1sc(C(=O)c2cnn(-c3ccccc3)c2C)c(N)c1C#N (stereo not shown) [Compound 1-53, 2-[4-Amino-3-cyano-5-(5-methyl-1-phenyl-1H-pyrazole-4-carbonyl)-thiophen-2-ylamino]-4-methylsulfanyl-butyric acid methyl ester] | > 10 µM | > 10 µM
9 | COc1ccc(CNc2sc(C(=O)c3cnn(-c4ccccc4)c3C)c(N)c2C#N)cc1OC [Compound 1-54, 4-Amino-2-(3,4-dimethoxy-benzylamino)-5-(5-methyl-1-phenyl-1H-pyrazole-4-carbonyl)-thiophene-3-carbonitrile] | < 10 µM | < 10 µM
10 | Cc1c(C(=O)c2sc(NC3CCOC3=O)c(C#N)c2N)cnn1-c1ccccc1 (stereo not shown) [Compound 1-56, 4-Amino-5-(5-methyl-1-phenyl-1H-pyrazole-4-carbonyl)-2-(2-oxo-tetrahydro-furan-3-ylamino)-thiophene-3-carbonitrile] | > 10 µM | < 10 µM
11 | CCc1ccccc1Nc1sc(C(=O)c2cnn(-c3ccccc3)c2C)c(N)c1C#N [Compound 1-58, 4-Amino-2-(2-ethyl-phenylamino)-5-(5-methyl-1-phenyl-1H-pyrazole-4-carbonyl)-thiophene-3-carbonitrile] | < 10 µM | < 10 µM
12 | Cc1onc(-c2ccccc2)c1C(=O)c1sc(NCCN2CCCCC2)c(C#N)c1N [Compound 1-59, 4-Amino-5-(5-methyl-3-phenyl-isoxazole-4-carbonyl)-2-(2-piperidin-1-yl-ethylamino)-thiophene-3-carbonitrile] | > 10 µM | > 10 µM
13 | COC(=O)C(CC(C)C)Nc1sc(C(=O)c2c(-c3ccccc3)noc2C)c(N)c1C#N (stereo not shown) [Compound 1-60, 2-[4-Amino-3-cyano-5-(5-methyl-3-phenyl-isoxazole-4-carbonyl)-thiophen-2-ylamino]-4-methyl-pentanoic acid methyl ester] | > 10 µM | < 10 µM
14 | N#Cc1c(NCCN2CCCCC2)sc(C(=O)c2ccccn2)c1N [Compound 1-63, 4-Amino-2-(2-piperidin-1-yl-ethylamino)-5-(pyridine-2-carbonyl)-thiophene-3-carbonitrile] | > 10 µM | > 10 µM
15 | COC(=O)C(CC(C)C)Nc1sc(C(=O)c2ccccn2)c(N)c1C#N (stereo not shown) [Compound 1-64, 2-[4-Amino-3-cyano-5-(pyridine-2-carbonyl)-thiophen-2-ylamino]-4-methyl-pentanoic acid methyl ester] | > 10 µM | < 10 µM
16 | COC(=O)C(CCSC)Nc1sc(C(=O)c2ccccn2)c(N)c1C#N (stereo not shown) [Compound 1-65, 2-[4-Amino-3-cyano-5-(pyridine-2-carbonyl)-thiophen-2ylamino]-4-methylsulfanyl-butyric acid methyl ester] | > 10 µM | > 10 µM
17 | N#Cc1c(NCCN2CCCCC2)sc(C(=O)c2ccc(-c3ccccn3)s2)c1N [Compound 1-70, 4-Amino-2-(2-piperidin-1-yl-ethylamino)-5-(5-pyridin-2-yl-thiophene-2-carbonyl)-thiophene-3-carbonitrile] | < 10 µM | < 10 µM
18 | COC(=O)C(CC(C)C)Nc1sc(C(=O)c2ccc(-c3ccccn3)s2)c(N)c1C#N (stereo not shown) [Compound 1-72, 2-[4-Amino-3-cyano-5-(5-pyridin-2-yl-thiophene-2-carbonyl)-thiophen-2-ylamino]-4-methyl-pentanoic acid methyl ester] | < 10 µM | < 10 µM
19 | COC(=O)c1ccccc1Nc1sc(C(=O)c2ccc(-c3ccccn3)s2)c(N)c1C#N [Compound 1-73, 2-[4-Amino-3-cyano-5-(5-pyridin-2-yl-thiophene-2-carbonyl)-thiophen-2-ylamino]-benzoic acid methyl ester] | < 10 µM | < 10 µM
20 | N#Cc1c(Nc2ccc(Oc3ccccc3)cc2)sc(C(=O)c2ccc(-c3ccccn3)s2)c1N [Compound 1-76, 4-Amino-2-(4-phenoxy-phenylamino)-5-(5-pyridin-2-yl-thiophene-2-carbonyl)-thiophene-3-carbonitrile] | > 10 µM | < 10 µM
21 | N#Cc1c(NC2CCOC2=O)sc(C(=O)c2ccc(-c3ccccn3)s2)c1N (stereo not shown) [Compound 1-79, 4-Amino-2-(2-oxo-tetrahydro-furan-3-ylamino)-5-(5-pyridin-2-yl-thiophene-2-carbonyl)-thiophene-3-carbonitrile] | < 10 µM | < 10 µM
22 | N#Cc1c(NCC2CCCO2)sc(C(=O)c2ccc(-c3ccccn3)s2)c1N (stereo not shown) [Compound 1-80, 4-Amino-5-(5-pyridin-2-yl-thiophene-2-carbonyl)-2-[(tetrahydro-furan-2-ylmethyl)-amino]-thiophene-3-carbonitrile] | < 10 µM | < 10 µM
23 | COC(=O)C(CC(C)C)Nc1sc(C(=O)c2cc(-c3ccc(Cl)c(Cl)c3)no2)c(N)c1C#N (stereo not shown) [Compound 1-84, 2-{4-Amino-3-cyano-5-[3-(3,4-dichloro-phenyl)-isoxazole-5-carbonyl]-thiophen-2-ylamino}-4-methyl-pentanoic acid methyl ester] | > 10 µM | > 10 µM
24 | COC(=O)C(CC(C)C)Nc1sc(C(=O)c2ccc(C)cc2C)c(N)c1C#N (stereo not shown) [Compound 1-87, 2-[4-Amino-3-cyano-5-(2,4-dimethyl-benzoyl)-thiophen-2-ylamino]-4-methyl-pentanoic acid methyl ester] | > 10 µM | > 10 µM
25 | COC(=O)C(CCSC)Nc1sc(C(=O)c2ccc(C)cc2C)c(N)c1C#N (stereo not shown) [Compound 1-88, 2-[4-Amino-3-cyano-5-(2,4-dimethyl-benzoyl)-thiophen-2-ylamino]-4-methylsulfanyl-butyric acid methyl ester] | > 10 µM | < 10 µM
26 | Cc1ccc(C(=O)c2sc(Nc3ccc(C(=O)NC4CCOC4=O)cc3)c(C#N)c2N)c(C)c1 (stereo not shown) [Compound 1-89, 4-[4-Amino-3-cyano-5-(2,4-dimethyl-benzoyl)-thiophen-2-ylamino]-N-(2-oxo-tetrahydro-furan-3-yl)-benzamide] | < 10 µM | < 10 µM
27 | Cc1ccc(C(=O)c2sc(NC3CCOC3=O)c(C#N)c2N)c(C)c1 (stereo not shown) [Compound 1-91, 4-Amino-5-(2,4-dimethyl-benzoyl)-2-(2-oxo-tetrahydro-furan-3-ylamino)-thiophene-3-carbonitrile] | > 10 µM | < 10 µM
28 | COc1ccc(OC)c(C(=O)c2sc(Nc3ccccc3F)c(C#N)c2N)c1 [Compound 1-92, 4-Amino-5-(2,5-dimethoxy-benzoyl)-2-(2-fluoro-phenylamino)-thiophene-3-carbonitrile] | < 10 µM | < 10 µM
29 | COc1ccc(Nc2sc(C(=O)c3cc(OC)ccc3OC)c(N)c2C#N)cc1 [Compound 1-93, 4-Amino-5-(2,5-dimethoxy-benzoyl)-2-(4-methoxy-phenylamino)-thiophene-3-carbonitrile] | < 10 µM | < 10 µM
